Measured values taken from PMC8342319, “Predicting blood-to-plasma concentration ratios of drugs from chemical structures and volumes of distribution in humans” (Molecular Diversity, 2021).
Where two headings read alike, the source gives them in different places.

How the values were obtained:
[1] = human, intravenous, cited from earlier work
[2] = human
[3] = human, cited from earlier work
[4] = median if multiple values were reported, ref numbers in Table S1
[5] = intravenous, median if multiple values were reported, ref numbers in Table S1
[6] = median if multiple values reported, Reference of Table S1
[7] = intravenous, median if multiple values reported, Reference of Table S1

| Structure (SMILES) | in vivo CL_(L/hr/kg)_Human [1, 4] | in vivo MRT_(hr)_Human [2] | in vivo Vd_(L/kg)_Human [3, 5] | in vivo Vd_(L/kg)_Human ([3]; in vivo, iv) | in vivo CL_(L/hr/kg)_Human [1, 6] | in vivo Vd_(L/kg)_Human [3, 7] |
| --- | --- | --- | --- | --- | --- | --- |
| Cc1[nH]cnc1CN1CCc2c(c3ccccc3n2C)C1=O [Alosetron] | 0.522 L/h/kg | 2.107 h | 1.100 L/kg |  |  |  |
| Cc1cc(=O)n(-c2ccccc2)n1C [Antipyrine] | 0.038 L/h/kg | 21.354 h | 0.820 L/kg |  |  |  |
| Cn1c(=O)c2c(ncn2C)n(C)c1=O [Caffeine] | 0.084 L/h/kg | 8.095 h | 0.680 L/kg |  |  |  |
| COCc1c(C(C)C)nc(C(C)C)c(/C=C/[C@@H](O)C[C@@H](O)CC(=O)O)c1-c1ccc(F)cc1 [Cerivastatin] | 0.174 L/h/kg | 1.897 h | 0.330 L/kg |  |  |  |
| CN(C)CCCN1c2ccccc2Sc2ccc(Cl)cc21 [Chlorpromazine] | 0.960 L/h/kg | 10.938 h | 10.500 L/kg |  |  |  |
| NS(=O)(=O)c1cc(C2(O)NC(=O)c3ccccc32)ccc1Cl (stereo not drawn) [Chlorthalidone] | 0.046 L/h/kg | 43.333 h | 3.900 L/kg |  |  |  |
| CN/C(=N/CCSCc1nc[nH]c1C)NC#N [Cimetidine] | 0.492 L/h/kg | 2.469 h | 1.200 L/kg |  |  |  |
| CN(C)CCCN1c2ccccc2CCc2ccc(Cl)cc21 [Clomipramine] | 0.492 L/h/kg | 26.423 h | 13.000 L/kg |  |  |  |
| O=c1ccc2ccccc2o1 [Coumarin] | 1.020 L/h/kg | 2.157 h | 2.200 L/kg |  |  |  |
| Cc1onc(-c2c(Cl)cccc2Cl)c1C(=O)N[C@@H]1C(=O)N2[C@@H]1SC(C)(C)[C@@H]2C(=O)O [Dicloxacillin] | 0.108 L/h/kg | 0.917 h | 0.110 L/kg |  |  |  |
| C[C@H]1O[C@@H](O[C@H]2[C@@H](O)C[C@H](O[C@H]3[C@@H](O)C[C@H](O[C@H]4CC[C@@]5(C)[C@H](CC[C@@H]6[C@@H]5C[C@@H](O)[C@]5(C)[C@@H](C7=CC(=O)OC7)CC[C@]65O)C4)O[C@@H]3C)O[C@@H]2C)C[C@H](O)[C@@H]1O [Digoxin] | 0.102 L/h/kg | 40.196 h | 4.100 L/kg |  |  |  |
| CN(C)CCC=C1c2ccccc2COc2ccccc21 [Doxepin] | 0.840 L/h/kg | 14.286 h | 12.000 L/kg |  |  |  |
| CC[C@@H](CO)NCCN[C@@H](CC)CO [Ethambutol] | 0.600 L/h/kg | 2.833 h | 1.700 L/kg |  |  |  |
| CN1CCN(c2c(F)cc3c(=O)c(C(=O)O)cn(CCF)c3c2F)CC1 [Fleroxacin] | 0.144 L/h/kg | 10.764 h | 1.550 L/kg |  |  |  |
| OC(Cn1cncn1)(Cn1cncn1)c1ccc(F)cc1F [Fluconazole] | 0.019 L/h/kg | 40.323 h | 0.750 L/kg |  |  |  |
| CN[C@@H]1CCc2[nH]c3ccc(C(N)=O)cc3c2C1 [Frovatriptan] | 0.150 L/h/kg | 24.000 h | 3.600 L/kg |  |  |  |
| Nc1nc(O)c2ncn(COC(CO)CO)c2n1 [Ganciclovir] | 0.240 L/h/kg | 3.623 h | 1.000 L/kg |  |  |  |

| Structure (SMILES) | in vivo CL_(L/hr/kg)_Human [1, 4] | in vivo MRT_(hr)_Human [2] | in vivo Vd_(L/kg)_Human [3, 5] | in vivo Vd_(L/kg)_Human ([3]; in vivo, iv) | in vivo CL_(L/hr/kg)_Human [1, 6] | in vivo Vd_(L/kg)_Human [3, 7] |
| --- | --- | --- | --- | --- | --- | --- |
| CN1C2CCCC1CC(NC(=O)c1nn(C)c3ccccc13)C2 (stereo not drawn) [Granisetron] | 0.546 L/h/kg | 6.777 h | 3.700 L/kg |  |  |  |
| CC(C)(C)NC(=O)[C@@H]1CN(Cc2cccnc2)CCN1C[C@@H](O)C[C@@H](Cc1ccccc1)C(=O)N[C@H]1c2ccccc2C[C@H]1O [Indinavir] | 1.080 L/h/kg | 0.759 h | 0.820 L/kg |  |  |  |
| C[C@H]1COc2c(N3CCN(C)CC3)c(F)cc3c(=O)c(C(=O)O)cn1c23 [Levofloxacin] | 0.114 L/h/kg | 37.281 h | 4.250 L/kg |  |  |  |
| CCCCc1nc(Cl)c(CO)n1Cc1ccc(-c2ccccc2-c2nn[nH]n2)cc1 [Losartan] | 0.489 L/h/kg | 0.752 h | 0.370 L/kg |  |  |  |
| CC(C)Oc1ccccc1N1CCN(Cc2cccc(C(=O)N3CCCCC3)c2)CC1 [Mazapertine] | 0.370 L/h/kg | 4.160 h | 1.540 L/kg |  |  |  |
| CCN(CC)CCNC(=O)c1cc(Cl)c(N)cc1OC [Metoclopramide] | 0.342 L/h/kg | 9.357 h | 3.200 L/kg |  |  |  |
| Cc1ccccc1N1C(=O)c2cc(S(N)(=O)=O)c(Cl)cc2NC1C (stereo not drawn) [Metolazone] | 0.084 L/h/kg | 19.048 h | 1.600 L/kg |  |  |  |
| Cc1ncc([N+](=O)[O-])n1CCO [Metronidazole] | 0.051 L/h/kg | 7.843 h | 0.400 L/kg |  |  |  |
| CC(C)(O)c1ccccc1CC[C@@H](SCC1(CC(=O)O)CC1)c1cccc(/C=C/c2ccc3ccc(Cl)cc3n2)c1 [Montelukast] | 0.041 L/h/kg | 3.676 h | 0.150 L/kg |  |  |  |
| COC(=O)C1=C(C)NC(C)=C(C(=O)OCC(C)C)C1c1ccccc1[N+](=O)[O-] (stereo not drawn) [Nisoldipine] | 0.900 L/h/kg | 6.111 h | 5.500 L/kg |  |  |  |
| O=C1CN=C(c2ccccc2)c2cc([N+](=O)[O-])ccc2N1 [Nitrazepam] | 0.052 L/h/kg | 32.946 h |  | 1.700 L/kg |  |  |
| CNCCC=C1c2ccccc2CCc2ccccc21 [Nortriptyline] | 0.516 L/h/kg | 36.667 h | 22.000 L/kg |  |  |  |
| CC1COc2c(N3CCN(C)CC3)c(F)cc3c(=O)c(C(=O)O)cn1c23 (stereo not drawn) [Ofloxacin] | 0.150 L/h/kg | 10.667 h | 1.600 L/kg |  |  |  |
| Cc1nccn1CC1CCc2c(c3ccccc3n2C)C1=O (stereo not drawn) [Ondansetron] | 0.354 L/h/kg | 5.172 h | 1.800 L/kg |  |  |  |
| CCN1CCC[C@H]1CNC(=O)c1c(OC)ccc(Br)c1OC [Remoxipride] |  | 6.373 h |  |  | 0.102 L/h/kg | 0.650 L/kg |
| O=C(O)CCCCO/N=C(/c1cccnc1)c1cccc(C(F)(F)F)c1 [Ridogrel] |  | 6.825 h |  |  | 0.063 L/h/kg | 0.430 L/kg |
| CCN(CC)CCNC(=O)c1ccc(NS(C)(=O)=O)cc1 [Sematilide] |  | 3.694 h |  |  | 0.222 L/h/kg | 0.820 L/kg |
